Data set [1] concerns rats with MCAO. Put plainly: Cerebral infarct volume by MRI in transient MCAO model. In kind it is in vivo, Wistar rats. The conditions noted are these: for Infarct volume at 24 h: 24 h after MCAO, before treatment (group baseline); for Infarct volume by day 28: day 28 after MCAO, compound 1 125 mg kg^−1, piracetam 300 mg kg^−1 daily from 24 h to day 5, p = 0.17. The method, then:
A MCAO animal model was used to characterize the effects of compound 1 on the development and resolution of stroke. At the baseline, we performed the MRI and hole-board test before MCAO surgery. Once animals recovered after the surgery, we stratified them based on their background psycho-emotional status and performed a control MRI to access whether the occlusion was sufficient or not. […] From 24 h to day 7, the neurological status was assessed daily according to the neurological scale (mNSS). By the end of day 7, animals underwent MRI. In addition, MRI was performed on days 14 and 28 (Shceme 3)The hole-board test was repeated on days 10 and 24. The degree of motor function impairment, the deficit of exploratory behavior, and the recovery process were assessed in the beam walking test (BWT), which was performed twice on days 12 and 14. An open field test was carried out on days 16 and 26.
Before conducting the experiments, the animals underwent the HBT and were allocated to groups based on their behavior score and weight. Kullback–Leibler divergence method for allocation based on two numerical parameters was used for allocation. We used a sum score for behavior tests and weight. Subsequently, two experimental series were performed. In the first series, rat behavior without stroke modeling after injection of compound 1 (experimental group, n = 10) or saline (control group, n = 10) was evaluated (Scheme 3a). […] Compound 1 was injected at a dose of 125 mg kg^−1 and an injection volume of 0.5 mL. […] For the experiments, the following predetermined exclusion criteria were used: (1) incomplete MCAO indicated by an incomplete lesion on magnetic resonance imaging (MRI) after 24 h [n = 4]and (2) post-operative weight loss of > 20% and severe animal condition within the first post-stroke 48 h [n = 3]. Animals reached humane endpoints based on the absence of nociceptive reflex withdrawal responses, hypothermia, and heart rate reduction to 100–150 beats min^−1. As steroid treatment could have influenced the experiment, rats were humanely euthanized according to the ethical protocol. The experiment design is presented in Scheme 3b.
The rats were anesthetized initially using 3% isoflurane and maintained with a mixture of 2–2.5% isoflurane and 97.5–98% atmospheric air (EZ-7000 Classic System, E-Z Anesthesia® Systems). […]
During the procedure, the rats were maintained under inhalation anesthesia as mentioned above. […] The volume of the hyperintensity ischemic stroke area was calculated by summing the areas of adjacent cross-sections using the following formula: Volume = (S1 + … + Sn) × (h + d), where S1, …, Sn are areas measured in n slices, h is the slice thickness, and d is the interval between slices.

The subject of data set [2] is rats with MCAO. Put plainly: Survival within 28 days after MCAO (Kaplan-Meier, log-rank). The following applies: 28 days after first administration, log-rank test. In kind it is in vivo, Wistar rats. The method, then: All statistical analyses were performed using the IBM® SPSS® Statistics Version 23.0 and R software Version 3.3.2 (R Foundation for Statistical Computing, Vienna, Austria). For normally distributed quantitative continuous variables, the mean and standard deviation (SD) values were calculated and presented as descriptive statistics. For ordinal variables, median and 25- and 75-percentiles were calculated. For qualitative variables, the absolute count and percentage value for each category were calculated. For quantitative variables, the normality of distribution was verified using frequency histograms and Kolmogorov–Smirnov test. A two-tailed p-value < 0.05 was considered statistically significant. To compare changes in structure displacement, lesion size, and neurological scale, a general linear repeated measures model with a group as a fixed factor was used. One-way multivariate analysis of variance was used in the analysis of behavior. Experimental groups were designed to have an equal sample size (8 vs. 8 rats) based on sample size calculations for the independent sample t-test using Statistica 10 software (type I error 0.05, type II error 0.20). Animal survival was estimated by the Kaplan–Meier method using the log-rank test.

`O=C(CN1CC(c2ccccc2)CC1=O)NCCS(=O)(=O)[O-].[K+]` (stereo not drawn) [Compound 1, potassium 2-[2-(2-oxo-4-phenylpyrrolidin-1-yl)acetamido]ethane-1-sulfonate]: in data set [1], the “Infarct volume at 24 h” value is 133.6 ± 24.1 mm^3 and the “Infarct volume by day 28” value worked out at 91.2 ± 18.9 mm^3. Further, in data set [2], the “Survival of animals vs other groups” value is on record as “no significant differences”.
For `NC(=O)CN1CCCC1=O` [Piracetam, reference compound], in that order: 128.5 ± 15.5 mm^3, 86.0 ± 13.5 mm^3 and “no significant differences”.

Values taken from article PMC8541353, “A Novel Phenylpyrrolidine Derivative: Synthesis and Effect on Cognitive Functions in Rats with Experimental Ishemic Stroke” (Molecules, 2021).
